Experimental data reported in patent publication EP0925070B1, “ANTIFUNGAL COMBINATION THERAPY” (MERCK & CO., INC., priority 1996, dated 1998).

Assays:
[1] = test system: A. fumigatus; assay: broth microdilution antifungal susceptibility / drug combination testing in vitro (NCCLS protocol M27-T); format: cell-based
Text: (§1) This has been shown using a broth microdilution technique which is the standard method for antifungal susceptibility testing proposed by the NCCLS (protocol M27-T). Sub-inhibitory concentrations of Compound I in combination with sub-inhibitory concentrations of AmB and sub-inhibitory concentrations of FCZ were employed. The minimal inhibitory concentrations (MICs) for AmB and Compound I were defined as the lowest drug concentration at which there was an absence of growth.
(§2) Additional drug combination testing in vitro was performed to evaluate combinations of Compound I with AmB and FCZ against clinical isolates. There was no antagonism evident between Compound I and AmB against C. albicans, A. fumigatus and C. neoformans. Fractional inhibitory indices (FIC) were approximately 0.50 or lower, indicative of additive or synergistic activity.

[2] = test system: C. albicans; assay: as above; format: cell-based
Text: as §1, §2

[3] = test system: C. neoformans; assay: as above; format: cell-based; conditions: for activity against strains of C. neoformans in vitro: sub-inhibitory concentrations
Text: as §1, §2

[4] = test system: C. albicans; assay: drug interaction and efficacy study, disseminated candidiasis; format: in vivo; conditions: Compound I 0.03 mg/kg and lower plus 0.03 mg/kg and lower of AmB
Method: (§3) Drug interaction and efficacy studies with Compound I combined with either AmB or FCZ against disseminated candidiasis, aspergillosis and cryptococcosis were performed.

[5] = test system: A. fumigatus; assay: drug interaction and efficacy study, disseminated aspergillosis; format: in vivo; conditions: Compound I at 0.008 mg/kg combined with AmB at 0.12 mg/kg, versus the compounds administered alone
Method: as §3

[6] = test system: C. neoformans; assay: drug interaction and efficacy study, disseminated cryptococcosis; format: in vivo; conditions: combinations of Compound I and FCZ at certain concentrations
Method: as §3

[7] = test system: disseminated candidiasis, aspergillosis and cryptococcosis; assay: drug interaction and efficacy studies in vivo, overall statements; conditions: for adverse effects: at high, use or lower concentrations
Method: as §3

[8] = Compound I in combination with AmB

SMILES: CCC(C)CC(C)CCCCCCCCC(=O)N[C@H]1C[C@@H](O)[C@@H](NCCN)NC(=O)[C@@H]2[C@@H](O)CCN2C(=O)[C@H]([C@H](O)CCN)NC(=O)[C@H]([C@H](O)[C@@H](O)c2ccc(O)cc2)NC(=O)[C@@H]2C[C@@H](O)CN2C(=O)[C@H]([C@@H](C)O)NC1=O (stereo partly shown) [Compound I]
- activity in vitro [1, 8]: enhanced activity
- antagonism between Compound I and AmB ([1]; in vitro, clinical isolates): no antagonism
- activity in vitro [2, 8]: enhanced activity
- antagonism between Compound I and AmB ([2]; in vitro, clinical isolates): no antagonism
- activity of fluconazole, CFU numbers ([3]; Compound I combined with fluconazole 0.25, 0.50 and 1.0 µg/ml, organism not printed): significantly enhanced the activity of fluconazole
- activity against strains of C. neoformans in vitro [3, 8]: enhanced activity
- activity against strains of C. neoformans in vitro ([3]; Compound I in combination with FCZ): enhanced activity
- colony forming units (CFUs) ([3]; amphotericin B 0.0075, 0.015 and 0.03 µg/ml combined with Compound I 4, 8 and 16 µg/ml, organism not printed): markedly reduced
- antagonism between Compound I and AmB ([3]; in vitro, clinical isolates, C. neoformans): no antagonism
- efficacy against C. albicans [4]: more efficacious than either agent administered alone
- survival [5]: Significant improvement in survival
- efficacy against C. neoformans [6]: Beneficial effects on efficacy
- antagonism of efficacy ([7]; AmB combined with Compound I): no antagonism of efficacy
- adverse effects ([7]; Compound I combined with AmB): no adverse effects
- adverse effects ([7]; Compound I combined with FCZ): no adverse effects
- antagonism of efficacy ([7]; FCZ combined with Compound I): no antagonism of efficacy
